Test results: patent publication US20260158094A1, “COMPOSITION FOR PREVENTING, IMPROVING OR TREATING SKELETAL MUSCLE ATROPHY OR SARCOPENIA COMPRISING EXTRACT OR ISOLATED COMPOUND FROM STELLARIA DICHOTOMA AS ACTIVE INGREDIENT” (INDUSTRY-UNIVERSITY COOPERATION FOUNDATION HANYANG …, priority 2023, published 2026)
“And” between values parts separate entries of the source, which are not always exact repeats. Identical values can stand only once. Marks after values point to notes of the source that are not given here.

Legend:
C2C12 myotubes [1] = experiment: Fusion index of MHC-positive multinucleated C2C12 myotubes after dexamethasone (MHC immunofluorescence); assay type: cell-based, mouse
Procedure: The experiment was conducted similarly to Example 3-2. However, Dichotomine B was administered at concentrations of 10 μM and 30 μM.
After completion of treatment, the culture media from each group was removed, and cells were washed twice with phosphate-buffered saline (PBS), fixed with 4% paraformaldehyde for 15 minutes, and washed three times with PBS. The cells were then permeabilized with 0.1% Triton X-100 for 10 minutes, washed twice with PBS, and blocked with 3% horse serum solution for 2 hours. Mouse anti-MHC antibody was diluted 1:100 in 3% BSA and incubated overnight at 4° C. The cells were washed three times with 0.1% PBST. Goat anti-mouse IgG-FITC secondary antibody (Thermo Fisher Scientific) was diluted 1:500 in 3% BSA and reacted for 1 hour at 37° C., followed by three washes with 0.1% PBST. Next, cells were stained with 1 μg/mL Hoechst 33342 solution for 10 minutes at room temperature. Cell imaging was performed using the JuLi™ system. MHC immunofluorescence was visualized in green, and cell nuclei stained with Hoechst 33342 were visualized in blue.
From the results of Section 7-3, randomly selected multinucleated myotubes were analyzed to calculate the fusion index. The number of multinucleated myotubes (i.e., myotubes containing multiple nuclei) was counted and normalized to the total number of cells. The relative number of MHC-positive multinucleated myotubes was determined for each treatment group (see Table 4 and FIG. 13).

C2C12 myotubes [2] = experiment: Dexamethasone-induced atrophy of differentiated C2C12 myotubes, myotube diameter (ImageJ); assay type: cell-based, mouse; details: for prevention of dexamethasone-induced reduction in diameter of C2C12 myotubes (in words): dexamethasone-induced atrophy
Procedure: C2C12 mouse myoblasts used in this experiment were obtained from the American Type Culture Collection (ATCC). The cells were cultured in Dulbecco's Modified Eagle's Medium (DMEM) containing 10% fetal bovine serum (FBS), 100 U/mL penicillin, and 100 μg/mL streptomycin under conditions of 5% CO2 at 37° C. The C2C12 cells were seeded into 12-well plates and allowed to proliferate until reaching a confluence of 85-90%.
For induction of differentiation, the culture medium was replaced with a differentiation medium composed of DMEM supplemented with 2% horse serum, 100 U/mL penicillin, and 100 μg/mL streptomycin. The medium was replaced every two days, and differentiation was carried out for a total of 6 days.
The diameter of the C2C12 myotubes was measured using the ImageJ cell processing software. For each experimental group, the diameters of 50 individual myotubes were measured to calculate the average and standard error.

C57BL/6 male mice [3] = experiment: Muscle tissue weights (TA, EDL, GA, SOL) of mice after 48-hour fasting; assay type: in vivo; details: 10 mg/kg
Procedure: (§1) C57BL/6 male mice (6 weeks old) were obtained from Koatech (Pyeongtaek, Gyeonggi-do, Korea) and acclimated for one week in the Hanyang University ERICA Laboratory Animal Center (Animal Facility Registration No. 445) before use in the experiments. The lighting cycle was set to 12 hours (07:00 to 19:00), and food and water were provided ad libitum. All animal experiments were conducted in compliance with the guidelines and regulations of the Institutional Animal Care and Use Committee (IACUC) of Hanyang University.
(§2) After acquisition of the experimental animals and a 7-day acclimation period, the experiment was conducted.
(§3) Body weight was measured three times in total. For the fasting group, each animal was housed individually during the fasting period. The test sample was administered twice: once at the start of the fasting period, and again 24 hours later. Experimental results are presented as means±standard deviation (SD). Statistical significance among groups was analyzed using ANOVA t-tests via the StatView program.
To evaluate muscle loss, the weights of dissected muscle tissues-including the tibialis anterior (TA), extensor digitorum longus (EDL), gastrocnemius (GA), and soleus (SOL)-were measured post-mortem and summarized in Table 9.

[4] = Body weight of mice with 48-hour fasting; assay type: in vivo, C57BL/6 male mice; details: 10 mg/kg; for Body weight (g), End of Sample Administration: administered twice
Procedure: as §1, §2
Solid feed for laboratory animals (Woojung Bio, Hwaseong, Gyeonggi-do, Korea) was provided, and all treatments were administered during a fixed time window (10:00 AM to 12:00 PM).
as §3
In the non-fasting group, body weight changes were within the normal range. However, in the fasting group (F group), a statistically significant reduction in body weight was observed after 48 hours of fasting (see Table 7).

[5] = system: MHC, Atrogin-1 and MuRF-1 in C2C12 myotubes; experiment: Western blotting of dexamethasone-treated C2C12 myotubes; assay type: cell-based, mouse; details: dexamethasone model, western blot
Procedure: C2C12 cells were seeded in a 6-well plate at a density of 1×10^5 cells per well. After differentiation was complete, each group was treated with dexamethasone and the test sample according to the respective experimental condition.
Cells were lysed using a lysis buffer containing LIPA buffer, protease inhibitors, and phosphatase inhibitors. A volume of 200 μL of the prepared lysis buffer was added per well, and the cells were collected using a cell scraper. The lysates were centrifuged at 13,000 rpm for 20 minutes, and the supernatants were collected. Protein concentrations were measured using the BCA protein assay method. Equal amounts of protein were separated using 8% SDS-PAGE.
The separated proteins were transferred to a nitrocellulose membrane, followed by blocking with 3% BSA buffer. The membranes were incubated with various primary antibodies (e.g., MHC, FoxO3a, MuRF1, GAPDH), followed by sequential washing, incubation with secondary antibodies, and further washing steps.
Protein expression was detected using enhanced chemiluminescence (ECL), and images were acquired using the ChemiDoc imaging system. Quantification of each protein expression level was performed using ImageJ software.

[6] = system: MHC, FOXO3a, Atrogin-1 and MuRF-1 in C2C12 myotubes; experiment: Western blotting in the C2C12 starvation model; assay type: cell-based, mouse; details: western blot
Procedure: (§4) Culturing differentiated C2C12 myotubes in serum-free/low-glucose medium inhibits muscle protein synthesis and induces muscle atrophy through increased protein degradation. In this example, C2C12 myotubes differentiated as in Section 8-1 were cultured in serum-free/low-glucose medium to induce atrophy, and the cells were then treated with Dichotomine B under the following specific experimental conditions: • 1. Control group: Differentiated C2C12 myotubes were maintained in normal differentiation medium for 48 hours. • 2. Negative control group: Differentiated C2C12 myotubes were cultured in serum-free/low-glucose medium for 48 hours. • 3 Dichotomine B treatment groups: In the same condition as the negative control group, Dichotomine B was additionally administered at concentrations of 1 μM or 10 μM for 48 hours.
Western blotting was performed in the same manner as described in Example 7-5 to assess the expression levels of related proteins.

C2C12 myotubes [7] = experiment: In vitro starvation model (serum-free/low-glucose medium), C2C12 myotube diameter and MHC-stained area; assay type: cell-based, mouse
Procedure: as §4
This procedure was conducted in the same manner as described in Section 7-3.
The diameter and staining area of the myotubes were measured as described in Example 3-3. The mean and standard errors were calculated, and the results were organized into Table 6. Each experiment was performed in triplicate.

C57BL/6 male mice [8] = experiment: Grip strength of mice after 48-hour fasting (grip strength meter); assay type: in vivo; details: fed mice, 10 mg/kg
Procedure: as §1, §2, §3
After the completion of the fasting period, grip strength was measured using a grip strength meter.

[9] = fed mice (Feed + Dichotomine B)
[10] = Dex 10 μM + compound 30 μM, 24 hours
[11] = starvation (serum free/low glucose medium) 48 hours + compound 1 μM
[12] = starvation (serum free/low glucose medium) 48 hours + compound 10 μM

What does the source list for C[C@@H]1C[C@H]2[C@@H]3CCC4=CC(=O)C=C[C@]4(C)[C@@]3(F)[C@@H](O)C[C@]2(C)[C@@]1(O)C(=O)CO [Dex, Dexamethasone, reference compound]?
fusion index of MHC-positive multinucleated C2C12 myotubes (% of control) (C2C12 myotubes [1]; Dex 10 μM alone): 80.0^a % of control; C2C12 myotube diameter (% of control) (C2C12 myotubes [2]; dexamethasone 10 μM alone, 24 hours (negative control group)): 79.9^a % of control; decrease of C2C12 myotube diameter compared to the control group (C2C12 myotubes [2]; dexamethasone 10 μM vs differentiation medium alone): 21.1%

What does the source list for O=C(O)c1cc2c([nH]c3ccccc32)c([C@@H](O)CO)n1 [Dichotomine B]?
fusion index of MHC-positive multinucleated C2C12 myotubes (% of control) (C2C12 myotubes [1]; Dex 10 μM + compound 10 μM): 90.3^b % of control; fusion index of MHC-positive multinucleated C2C12 myotubes (% of control) (C2C12 myotubes [1]; Dex 10 μM + compound 30 μM): 92.3^b % of control; fusion index of multinucleated C2C12 myotubes (in words) (C2C12 myotubes [1]; dexamethasone model): significantly improved the fusion index; Extensor Digitorum Longus (EDL) weight (C57BL/6 male mice [3]; fed mice): 0.012 ± 0.002 g; Gastrocnemius (GA) weight (C57BL/6 male mice [3]; fed mice): 0.169 ± 0.014 g; Soleus (SOL) weight (C57BL/6 male mice [3]; fed mice): 0.010 ± 0.001 g; Tibialis Anterior (TA) weight (C57BL/6 male mice [3]; fed mice): 0.058 ± 0.006 g; Extensor Digitorum Longus (EDL) weight (C57BL/6 male mice [3]; starved mice, 48-hour fasting): 0.014 ± 0.004 g; Gastrocnemius (GA) weight (C57BL/6 male mice [3]; starved mice, 48-hour fasting): 0.165 ± 0015 g; Body weight (g), Start of Sample Administration [4, 9]: 21.080 ± 0.370 g; Body weight (g), End of Sample Administration [4, 9]: 21.400 ± 0.339 g; effect on body weight (in words) ([4]; mice, 48-hour fasting): no significant effect on body weight; Body weight (g), Start of Sample Administration ([4]; starved mice (Starvation + Dichotomine B)): 22.214 ± 0.701 g; Body weight (g), End of Sample Administration ([4]; starved mice, 48-hour fasting): 17.743 ± 0.885 g; C2C12 myotube diameter (% of control) (C2C12 myotubes [2]; Dex 10 μM + compound 10 μM, 24 hours): 97.9^b % of control; C2C12 myotube diameter (% of control) (C2C12 myotubes [2]; [10]): 98.2^b % of control and 100.6^b % of control; prevention of dexamethasone-induced reduction in diameter of C2C12 myotubes (in words) (C2C12 myotubes [2]): effectively prevented; MHC expression [5]: increased in a concentration-dependent manner; expression of Atrogin-1 and MuRF-1 [5]: reduced; effect on starvation-induced changes of MHC, FOXO3a, Atrogin-1 and MuRF-1 expression [6]: effectively reversed these effects; C2C12 myotube diameter (% of control) (C2C12 myotubes [7]; [11]): 98.6 + 9.3^b % of control; MHC positive area (% of control) (C2C12 myotubes [7]; [11]): 93.6 + 7.8^b % of control; C2C12 myotube diameter (% of control) (C2C12 myotubes [7]; [12]): 100.4 ± 10.8^b % of control; MHC positive area (% of control) (C2C12 myotubes [7]; [12]): 97.1 ± 8.4^b % of control; Grip Strength (gf) (C57BL/6 male mice [8]): 190 ± 11.7 gf

For C[C@H](O)c1nc(C(=O)O)cc2c1[nH]c1ccccc12 [Dichotominee A, Dichotomine A], which “C2C12 myotube diameter (% of control)” value (C2C12 myotubes [2]; [10]) is on record?
Its value is 87.9 % of control.

With O=c1cc(-c2ccc(O)cc2)oc2c([C@@H]3O[C@H](CO)[C@@H](O)[C@H](O)[C@H]3O)c(O)c([C@@H]3OC[C@H](O)[C@H](O)[C@H]3O)c(O)c12 [Isoshaftoside] as the compound, how does the “C2C12 myotube diameter (% of control)” value (C2C12 myotubes [2]; [10]) read?
The value was 95.7^c % of control.

What about the “prevention of dexamethasone-induced reduction in diameter of C2C12 myotubes (in words)” value (C2C12 myotubes [2]) of the same compound?
Its value is “effectively prevented”.

With Glucodichotomine B as the compound, how does the “C2C12 myotube diameter (% of control)” value (C2C12 myotubes [2]; [10]) read?
The value was 102.0^b % of control.

What about the “prevention of dexamethasone-induced reduction in diameter of C2C12 myotubes (in words)” value (C2C12 myotubes [2]) of the same compound?
The value was “effectively prevented”.

Which results are given for Shaftoside?
C2C12 myotube diameter (% of control) (C2C12 myotubes [2]; [10]): 92.7^c % of control; prevention of dexamethasone-induced reduction in diameter of C2C12 myotubes (in words) (C2C12 myotubes [2]): effectively prevented
